By IC50 is commonly meant the concentration at which inhibition is half-maximal. A word on the Km: it is the substrate concentration at which the rate is half of its maximum. One may read the inhibition as the change of the read-out against control, counted positive when it falls.

Molecules are shown by their SMILES. Changes are numbered by the printed parent chain.

What all share (format): biochemical
Test [1] addresses T1, hASCT2 (Homo sapiens, UniProt Q15758, C467A).
T1 construct: gene SLC1A5; recombinant hASCT2-His6, purified from P. pastoris, in proteoliposomes
T1 sequence (Q15758 1-541 C467A): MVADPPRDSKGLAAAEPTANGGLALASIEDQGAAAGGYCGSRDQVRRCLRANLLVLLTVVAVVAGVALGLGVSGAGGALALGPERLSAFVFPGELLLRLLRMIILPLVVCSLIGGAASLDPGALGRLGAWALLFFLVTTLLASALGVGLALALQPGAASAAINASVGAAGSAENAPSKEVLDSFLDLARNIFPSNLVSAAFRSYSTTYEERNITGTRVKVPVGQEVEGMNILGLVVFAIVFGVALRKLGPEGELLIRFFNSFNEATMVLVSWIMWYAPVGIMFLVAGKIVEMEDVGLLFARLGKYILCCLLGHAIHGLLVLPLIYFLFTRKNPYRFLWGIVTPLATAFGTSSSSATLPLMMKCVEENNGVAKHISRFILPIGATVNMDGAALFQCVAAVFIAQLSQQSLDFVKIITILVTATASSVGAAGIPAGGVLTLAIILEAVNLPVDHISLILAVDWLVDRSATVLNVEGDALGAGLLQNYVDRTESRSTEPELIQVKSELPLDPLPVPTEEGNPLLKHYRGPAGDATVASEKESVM
As to the kind of experiment: [3H]Gln transport inhibition in proteoliposomes, dose-response.

The target of test [2] is T2, hASCT2 (Homo sapiens, UniProt Q15758).
T2 construct: gene SLC1A5; recombinant hASCT2-His6, purified from P. pastoris, in proteoliposomes
T2 sequence (Q15758 1-541): T1 sequence (Q15758 1-541 C467A) with A467C
The experiment in a line: [3H]Gln transport inhibition in proteoliposomes at […].

Test [3] addresses T1, hASCT2. The experiment in a line: [3H]Gln transport kinetics (external Km) in proteoliposomes.
Test [4] addresses T2, hASCT2. Described as above.
For test [5], the target named is T2, hASCT2. The experiment in a line: [3H]Gln transport inhibition in proteoliposomes, dose-response.
The target of test [6] is T2, hASCT2. The experiment in a line: [3H]Gln transport inhibition in proteoliposomes at […]. The note with it: read-out: % inhibition at 1 mM.

Turning to `N[C@@H](CS)C(=O)O` [Cys], on hASCT2 [1], the IC50 is 16.6 ± 1.62 µM. Also, the “[3H]Gln transport inhibition in proteoliposomes at 1 mM” value at hASCT2 [2] is “While Cys strongly inhibited the transport; in this case, inhibition occurred by a mechanism not involving S-S/SH inter-conversion”.

As to `NC(=O)CC[C@H](N)C(=O)O` [Gln], the values for the Michaelis-Menten constant (Km) at hASCT2 [3] and on hASCT2 [4] were 202 ± 33 µM and 35 ± 10 µM, respectively.

`CS(=O)(=O)SCCS(=O)(=O)O` [MTSES, Sodium (2-sulfonatoethyl)methane thiosulfonate] registered an IC50 on hASCT2 [5] of 129 ± 21 µM.

Regarding `CCN1C(=O)C=CC1=O` [NEM], the inhibition at 1000 µM on hASCT2 [6] is around 50%.

Values taken from PMC5877509, “Cys Site-Directed Mutagenesis of the Human SLC1A5 (ASCT2) Transporter: Structure/Function Relationships and Crucial Role of Cys467 for Redox Sensing and Glutamine Transport” (International Journal of Molecular Sciences, 2018).
